# In patent EP0781282B1, “[1,2,4]TRIAZOLO[4,3-a]QUINOXALINONE DERIVATIVES, THEIR PREPARATION AND USE” (NOVO NORDISK A/S, priority 1994, dated 1996):
# Experiments:
# [1] = system: quisqualic acid stimulated spreading depression in chicken retina; assay: Spreading depression in chicken retina (Test 2); details: 50% maximal inhibition of spreading depression; quisqualate 1 µg/ml, chick retina, 26°C
# Procedure: The antagonism is measured by determining the IC50 value which represents the concentration which produces a 50% maximal inhibition of quisqualic acid stimulated spreading depression in chicken retina.
# Spreading depression (Test 2)
# Chicks (3-10 days old) were decapitated, the eyes enucleated and sectioned along the equatorial plane. After removal of the anterior chamber and the vitreous body, the posterior chamber of each eye was placed in a small petri dish containing a physiological saline solution (P.S.S.) of the following composition (mM) NaCI (100), KCI (6.0), CaCl2 (1.0), MgSO4 (1.0), NaHCO3 (30), NaH2PO4 (1.0), glucose (20).
# The solution was saturated with 100% O2 and maintained at a temperature of 26°C.
# The eyes were initially incubated in normal P.S.S. for 15-30 min. and then transferred to P.S.S. containing quisqualate (1 µg/ml). […] The time taken for an S.D. to start in each eye was measured.
# After a further 15 min. of incubation in normal P.S.S. the eyes were transferred to normal P.S.S. containing the test compound and incubated for 15 min. […] The time taken for an S.D. to start in each eye was measured again. The eyes were then placed back in normal P.S.S. and after 15 min. the time taken for S.D. to start was measured again, in order to assess the degree of recovery from any drug effects. […]
# AMPA receptors = assay: 3H-AMPA binding (Test 1); details: displacement of 50% of specific 3H-AMPA binding (5 nM); rat cerebral cortical membrane homogenate, 0°C, 30 min
# Procedure: The displacement activity of the compounds may be shown by determining the IC50 value which represents the concentration (µM) which causes a displacement of 50% of the specific binding of ^3H-AMPA.
# ^3H-AMPA binding (Test 1)
# 500 µl of thawed rat cerebral cortical membrane homogenate in Tris-HCI (30 mM), CaCl2 (2.5 mM) and KSCN (100 mM) pH 7.1 were incubated at 0°C for 30 min. with 25 µl ^3H-AMPA (5 nM final concentration) and the test compound and buffer. Nonspecific binding was determined by incubation with L-glutamic acid (600 µM final concentration). The binding reaction was terminated by adding 5 ml of ice-cold buffer followed by filtration through Whatman GF/C glass fibre filters and 2x5 ml wash with ice-cold buffer. Bound radioactivity was measured by scintillation counting. IC50 was determined by Hill analysis of at least four concentrations of test compound.
smiles,measurement,setting,value
"CCOP(=O)(O)Cc1nnc2c(=O)[nH]c3cc(C(F)(F)F)c(-n4ccnc4)cc3n12 [Example 1, 1-(Ethoxy-hydroxy-phosphorylmethyl)-8-(1H-imidazol-1-yl)-7-trifluoromethyl[1,2,4]triazolo[4,3-a]quinoxalin-4(5H)-one]",IC50,[1],1310 nM
same,IC50,AMPA receptors,240 nM
